The test system of one test is B16 melanoma. Kind of test: B16 melanoma mouse model. It counts as in vivo, C57BL/6 mice. Particulars: 10mg/kg i.p. every other day for 9 days, day 8 and day 9, compared to vehicle-treated mice. How it is done: Animal experiments were approved by the regional ethics committee for animal research (N391/11 and N26/11), appointed and under the control of the Swedish Board of Agriculture and the Swedish Court. The animal experiments were in accordance with national regulations (SFS 1988:534, SFS 1988:539 and SFS 1988:541).
For the B16 melanoma mouse model, 6-weeks-old female C57BL/6 mice were injected subcutaneously with 1x10^6 B16 cells. When the tumors reached 80-120 mm^3, 10 mg/kg of 1d*HCl were administered intraperitoneally every other day for 9 days (days 1, 3, 5, 7, 9). Tumor volume was measured by caliper three times per week, and the volume was calculated based on the formula (in ml): L/10*W/10*W/10*0.44 (L=length, W=width of tumor). Mice were sacrificed when tumors reached 2 cm^3 or upon bleeding.
We tested the anti-tumor activity of 1d*HCl using allogenic model of B16 mice. We inoculated mice with B16 melanoma cells. When the tumors reached 100 mm^3, we treated them with i.p. injection of 1d*HCl, 10mg/kg every other day for 9 days. […] The differences in tumor volume between untreated control mice and animals treated with 1d*HCl are all statistically significant. Thus, 1d*HCl has in vivo anti-tumor activity in this animal tumor model.

Test [1] in a line: Growth suppression with selenium in culture medium. It counts as cell-based. As to conditions: selenium added to culture medium. An excerpt: To find out whether the inhibition of TrxRl is the major mechanism of action of 1d*HCl, we addressed the question, whether stimulation of TrxRl activity will decrease the growth suppression activity of 1d*HCl. Since TrxR is a selenium-containing enzyme and the concentration of selenium is rate-limiting for TrxRl, we added selenium to culture medium to test whether selenium will alleviate the growth suppression by 1d*HCl.

From EP4201929A1, “QUINOXALINE THIOREDOXIN REDUCTASE INHIBITORS” (geneXplain GmbH, priority 2021, dated 2023) come the findings set out here.

As for `Cl.N#Cc1c(-c2cccnc2)[n+]([O-])c2cc(F)c(N3CCOCC3)cc2[n+]1[O-]` [1d*HCl, 6-Fluoro-7-(morpholin-4-yl)-3-(pyridin-3-yl)quinoxaline-2-carbonitrile-1,4-dioxide hydrochloride], in the test with B16 melanoma, the tumor volume entry is listed as “lower volume of tumors”. In test [1], the “growth suppression in the presence of selenium” value is “less efficient”.
